Read-outs that look alike come from different tables or passages of the source.
What was measured:
[1] = system: humans; details: for Maximal Tolerated Dose (MTD): oral pramipexole escalation to max 6 mg, ondansetron 8 mg or aprepitant 80 mg where combined
[2] = in vivo; cited from earlier work

| SMILES | dose limiting toxicity ([1]; both, human, in vivo) | Maximal Tolerated Dose (MTD) ([1]; subject 1001) [mg] | Maximal Tolerated Dose (MTD) ([1]; subject 1006) [mg] | Maximal Tolerated Dose (MTD) ([1]; subject 1007) [mg] | Maximal Tolerated Dose (MTD) ([1]; subject 1008) [mg] | plasma half-life [2] |
| --- | --- | --- | --- | --- | --- | --- |
| CCCN[C@H]1CCc2nc(N)sc2C1 [Pramipexole, (S)-6-propylamino-4,5,6,7-tetrahydro-1,3-benzothiazole-2-amine] | gastro-intestinal adverse event in all 4 subjects | 2.0 | <0.5 | 4.0 | 1.0 | – |
| C=CCN1C[C@H](C(=O)N(CCCN(C)C)C(=O)NCC)C[C@@H]2c3cccc4[nH]cc(c34)C[C@H]21 [cabergoline, (6aR,9R,10aR)—N-[3-(dimethylamino)propyl]-N-(ethylcarbamoyl)-7-prop-2-enyl-6,6a,8,9,10,10a-hexahydro-4H-indolo[4,3-fg]quinoline-9-carboxamide] | – | – | – | – | – | about 65 hours |

Reference: patent publication US20210338652A1, “COMPOSITION AND USE FOR THE TREATMENT OF PARKINSON'S DISEASE AND RELATED DISORDERS” (CHASE THERAPEUTICS CORPORATION, priority 2018, published 2021)
